Where two headings read alike, the source gives them in different places.
Tests used:
Assay type in all cases: cell-based
Aβ-38 = test: MSD Human (6E10) Ab 3-PLEX elisa, conditioned media of 2B7 cells: Aβ-38; settings: Homo sapiens, Aβ-38 (superscript a)
Summary of the method: (§1)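 Confluent 2B7 cells were treated with compound serial dilutions (1% DMSO final) for 5 hours at 37° C. Conditioned media, diluted 1:1 in blocking buffer, was incubated with detection antibody overnight at 4 degrees C or 2 hours at room temp.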

Aβ-40 = test: MSD Human (6E10) Ab 3-PLEX elisa, conditioned media of 2B7 cells: Aβ-40; settings: Homo sapiens; for IC50: Aβ-40 (superscript b); for inhibition at 20 µM: Aβ-40, 20 μM
Summary of the method: as §1

Aβ-42 = test: MSD Human (6E10) Ab 3-PLEX elisa, conditioned media of 2B7 cells: Aβ-42; settings: Homo sapiens; for inhibition at 20 µM: Aβ-42, 20 μM; for IC50: Aβ-42 (superscript c)
Summary of the method: as §1

Row | SMILES | IC50 (Aβ-38; read-out: 50% reduction value) | IC50 (Aβ-40; read-out: 50% reduction value) | inhibition at 20 µM (Aβ-42) | IC50 (Aβ-38; read-out: IC50 range) | IC50 (Aβ-40; read-out: IC50 range) | IC50 (Aβ-42; read-out: 50% reduction value) | IC50 (Aβ-42; read-out: IC50 range) | inhibition at 20 µM (Aβ-40)
1 | CCOC(C)(C)[C@H](O)C1C[C@@H](C)[C@H]2C(O1)[C@H](O)[C@@]1(C)C3CC[C@H]4C(C)(C)C(O)CC[C@@]45C[C@@]35CC[C@]21C (stereo partly shown) | 1 to 10 µM | > 10 µM | < 25% | – | – | – | – | –
2 | CC(C)C(=O)N1CCOC(OC2CC[C@]34C[C@]35CC[C@]3(C)[C@@H]6C(OC([C@H](OC(=O)N7CCC7)C(C)C)C[C@H]6C)[C@H](O)[C@@]3(C)C5CC[C@H]4C2(C)C)C1 (stereo partly shown) | < 1 µM | 1 to 10 µM | – | < 1 µM | > 10 µM | < 1 µM | < 1 µM | –
3 | CC(C)CC(=O)N1CCOC(OC2CC[C@]34C[C@]35CC[C@]3(C)[C@@H]6C(OC([C@H](OC(=O)N7CCC7)C(C)C)C[C@H]6C)[C@H](O)[C@@]3(C)C5CC[C@H]4C2(C)C)C1 (stereo partly shown) | 1 to 10 µM | 1 to 10 µM | – | 1 to 10 µM | 1 to 10 µM | 1 to 10 µM | 1 to 10 µM | –
4 | CC(C)[C@@H](OC(=O)N1CCC1)C1C[C@@H](C)[C@H]2C(O1)[C@H](O)[C@@]1(C)C3CC[C@H]4C(C)(C)C(OC(=O)N5CC(NCC(F)(F)F)C5)CC[C@@]45C[C@@]35CC[C@]21C (stereo partly shown) | 1 to 10 µM | > 10 µM | – | – | – | < 1 µM | – | –
5 | CS[C@@H](C1C[C@@H](C)[C@H]2C(O1)[C@H](O)[C@@]1(C)C3CC[C@H]4C(C)(C)C(O)CC[C@@]45C[C@@]35CC[C@]21C)C(C)(C)O (stereo partly shown) | < 1 µM | > 10 µM | – | – | – | 1 to 10 µM | – | –
6 | C[C@@H]1CC([C@H]([S+](C)[O-])C(C)(C)O)OC2[C@H]1[C@@]1(C)CC[C@@]34C[C@@]35CCC(O)C(C)(C)[C@@H]5CCC4[C@]1(C)[C@H]2O (stereo partly shown) | 1 to 10 µM | – | 25 to 75% | – | – | – | – | 25 to 75%
7 | C[C@@H]1CC([C@@H](C(C)(C)O)S(C)(=O)=O)OC2[C@H]1[C@@]1(C)CC[C@@]34C[C@@]35CCC(O)C(C)(C)[C@@H]5CCC4[C@]1(C)[C@H]2O (stereo partly shown) | 1 to 10 µM | – | 25 to 75% | – | – | – | – | 25 to 75%
8 | CC[S+]([O-])[C@@H](C1C[C@@H](C)[C@H]2C(O1)[C@H](O)[C@@]1(C)C3CC[C@H]4C(C)(C)C(O[C@H]5CN(C6COC6)CCO5)CC[C@@]45C[C@@]35CC[C@]21C)C(C)(C)O (stereo partly shown) | 1 to 10 µM | – | 25 to 75% | – | – | – | – | 25 to 75%
9 | CO[C@@H](C1C[C@@H](C)[C@H]2C(O1)[C@H](O)[C@@]1(C)C3CC[C@H]4C(C)(C)C(OC(=O)N5CCC5)CC[C@@]45C[C@@]35CC[C@]21C)C(C)(C)O (stereo partly shown) | 1 to 10 µM | > 10 µM | – | – | – | 1 to 10 µM | – | –
10 | CNC(=O)O[C@H](C(C)C)C1C[C@@H](C)[C@H]2C(O1)[C@H](O)[C@@]1(C)C3CC[C@H]4C(C)(C)C(OC(=O)NC5CNC5)CC[C@@]45C[C@@]35CC[C@]21C (stereo partly shown) | < 1 µM | 1 to 10 µM | – | – | – | < 1 µM | < 1 µM | –
11 | CCO[C@@H]([C@H]1C[C@@H](C)[C@H]2[C@H](O1)[C@H](O)[C@@]1(C)[C@@H]3CC[C@H]4C(C)(C)[C@@H](OC(=O)NC5CN(C)C5)CC[C@@]45C[C@@]35CC[C@]21C)C(C)(C)O | < 1 µM | < 1 µM | – | < 1 µM | 1 to 10 µM | < 1 µM | < 1 µM | –
12 | CCO[C@@H]([C@H]1C[C@@H](C)[C@H]2[C@H](O1)[C@H](O)[C@@]1(C)[C@@H]3CC[C@H]4C(C)(C)[C@@H](OC5CNCCO5)CC[C@@]45C[C@@]35CC[C@]21C)C(C)(C)O (stereo partly shown) | < 1 µM | 1 to 10 µM | – | < 1 µM | 1 to 10 µM | < 1 µM | < 1 µM | –
13 | CCO[C@@H]([C@H]1C[C@@H](C)[C@H]2[C@H](O1)[C@H](O)[C@@]1(C)[C@@H]3CC[C@H]4C(C)(C)[C@@H](OC5CN(C)CCO5)CC[C@@]45C[C@@]35CC[C@]21C)C(C)(C)O (stereo partly shown) | < 1 µM | 1 to 10 µM | – | < 1 µM | 1 to 10 µM | < 1 µM | < 1 µM | –
14 | CCO[C@@H]([C@H]1C[C@@H](C)[C@H]2[C@H](O1)[C@H](O)[C@@]1(C)[C@@H]3CC[C@H]4C(C)(C)[C@@H](OC5CN(C(=O)C(C)C)CCO5)CC[C@@]45C[C@@]35CC[C@]21C)C(C)(C)O (stereo partly shown) | < 1 µM | 1 to 10 µM | – | < 1 µM | 1 to 10 µM | < 1 µM | < 1 µM | –
15 | C=C(C)CO[C@@H](C1C[C@@H](C)[C@H]2C(O1)[C@H](O)[C@@]1(C)C3CC[C@H]4C(C)(C)C(O[C@H]5CN(C6COC6)CCO5)CC[C@@]45C[C@@]35CC[C@]21C)C(C)(C)O (stereo partly shown) | < 1 µM | 1 to 10 µM | – | < 1 µM | – | < 1 µM | < 1 µM | –
16 | CC(C)CO[C@@H](C1C[C@@H](C)[C@H]2C(O1)[C@H](O)[C@@]1(C)C3CC[C@H]4C(C)(C)C(O[C@H]5CN(C6COC6)CCO5)CC[C@@]45C[C@@]35CC[C@]21C)C(C)(C)O (stereo partly shown) | < 1 µM | 1 to 10 µM | – | < 1 µM | 1 to 10 µM | 1 to 10 µM | – | –

Row | SMILES | IC50 (Aβ-38; read-out: 50% reduction value) | IC50 (Aβ-40; read-out: 50% reduction value) | inhibition at 20 µM (Aβ-42) | IC50 (Aβ-38; read-out: IC50 range) | IC50 (Aβ-40; read-out: IC50 range) | IC50 (Aβ-42; read-out: 50% reduction value) | IC50 (Aβ-42; read-out: IC50 range) | inhibition at 20 µM (Aβ-40)
17 | CO[C@@H]([C@H]1C[C@@H](C)[C@H]2[C@H](O1)[C@H](O)[C@@]1(C)[C@@H]3CC[C@H]4C(C)(C)[C@@H](OC5CN(C(=O)C(C)C)CCO5)CC[C@@]45C[C@@]35CC[C@]21C)C(C)(C)O (stereo partly shown) | < 1 µM | 1 to 10 µM | – | < 1 µM | – | < 1 µM | < 1 µM | –
18 | C[C@@H]1CC([C@@H]2OCOC2(C)C)OC2[C@H]1[C@@]1(C)CC[C@@]34C[C@@]35CCC(O[C@H]3CN(C6COC6)CCO3)C(C)(C)[C@@H]5CCC4[C@]1(C)[C@H]2O (stereo partly shown) | 1 to 10 µM | – | – | – | – | > 10 µM | – | 25 to 75%
19 | C=C(C)CO[C@@H](C1C[C@@H](C)[C@H]2C(O1)[C@H](O)[C@@]1(C)C3CC[C@H]4C(C)(C)C(O)CC[C@@]45C[C@@]35CC[C@]21C)C(C)(C)O (stereo partly shown) | < 1 µM | 1 to 10 µM | – | < 1 µM | 1 to 10 µM | < 1 µM | < 1 µM | –
20 | CO[C@@H](C1C[C@@H](C)[C@H]2C(O1)[C@H](O)[C@@]1(C)C3CC[C@H]4C(C)(C)C(OC(=O)NC5COC5)CC[C@@]45C[C@@]35CC[C@]21C)C(C)(C)O (stereo partly shown) | < 1 µM | – | – | – | – | < 1 µM | < 1 µM | 25 to 75%
21 | CO[C@@H](C1C[C@@H](C)[C@H]2C(O1)[C@H](O)[C@@]1(C)C3CC[C@H]4C(C)(C)C(OC(=O)NC5CN(C)C5)CC[C@@]45C[C@@]35CC[C@]21C)C(C)(C)O (stereo partly shown) | < 1 µM | 1 to 10 µM | – | 1 to 10 µM | 1 to 10 µM | < 1 µM | < 1 µM | –
22 | CO[C@@H](C1C[C@@H](C)[C@H]2C(O1)[C@H](O)[C@@]1(C)C3CC[C@H]4C(C)(C)C(OC(=O)NC5CNC5)CC[C@@]45C[C@@]35CC[C@]21C)C(C)(C)O (stereo partly shown) | < 1 µM | 1 to 10 µM | – | – | 1 to 10 µM | < 1 µM | < 1 µM | –
23 | CC(C)[C@@H](OC(=O)N1CCC1)C1C[C@@H](C)[C@H]2C(O1)[C@H](O)[C@@]1(C)C3CC[C@H]4C(C)(C)C(OC(=O)N5CCN(S(C)(=O)=O)CC5)CC[C@@]45C[C@@]35CC[C@]21C (stereo partly shown) | < 1 µM | 1 to 10 µM | – | < 1 µM | 1 to 10 µM | < 1 µM | < 1 µM | –
24 | CC(=O)N1CCN(C(=O)OC2CC[C@]34C[C@]35CC[C@]3(C)[C@@H]6C(OC([C@H](OC(=O)N7CCC7)C(C)C)C[C@H]6C)[C@H](O)[C@@]3(C)C5CC[C@H]4C2(C)C)CC1 (stereo partly shown) | < 1 µM | 1 to 10 µM | – | < 1 µM | 1 to 10 µM | < 1 µM | < 1 µM | –
25 | CCNC(=O)O[C@H](C(C)C)C1C[C@@H](C)[C@H]2C(O1)[C@H](O)[C@@]1(C)C3CC[C@H]4C(C)(C)C(OC(=O)N5CCOCC5)CC[C@@]45C[C@@]35CC[C@]21C (stereo partly shown) | < 1 µM | – | – | – | – | – | < 1 µM | 25 to 75%
26 | CCNC(=O)O[C@H](C(C)C)C1C[C@@H](C)[C@H]2C(O1)[C@H](O)[C@@]1(C)C3CC[C@H]4C(C)(C)C(OC(N)=O)CC[C@@]45C[C@@]35CC[C@]21C (stereo partly shown) | < 1 µM | 1 to 10 µM | – | – | – | < 1 µM | – | –
27 | CCNC(=O)O[C@H](C(C)C)C1C[C@@H](C)[C@H]2C(O1)[C@H](O)[C@@]1(C)C3CC[C@H]4C(C)(C)C(OC(=O)NC5CNC5)CC[C@@]45C[C@@]35CC[C@]21C (stereo partly shown) | < 1 µM | 1 to 10 µM | – | < 1 µM | > 10 µM | < 1 µM | < 1 µM | –
28 | CNC(=O)OC1CC[C@]23C[C@]24CC[C@]2(C)[C@@H]5C(OC([C@H](OC(=O)N6CCC6)C(C)C)C[C@H]5C)[C@H](O)[C@@]2(C)C4CC[C@H]3C1(C)C (stereo partly shown) | < 1 µM | 1 to 10 µM | – | < 1 µM | 1 to 10 µM | < 1 µM | < 1 µM | –
29 | CC(C)[C@@H](OC(=O)N1CCC1)C1C[C@@H](C)[C@H]2C(O1)[C@H](O)[C@@]1(C)C3CC[C@H]4C(C)(C)C(OC(=O)N5CCn6c(nnc6C(F)(F)F)C5)CC[C@@]45C[C@@]35CC[C@]21C (stereo partly shown) | < 1 µM | – | – | – | – | < 1 µM | – | 25 to 75%
30 | CC(C)[C@@H](OC(=O)N1CCC1)C1C[C@@H](C)[C@H]2C(O1)[C@H](O)[C@@]1(C)C3CC[C@H]4C(C)(C)C(OC(=O)N5CC6(COC6)C5)CC[C@@]45C[C@@]35CC[C@]21C (stereo partly shown) | < 1 µM | > 10 µM | – | – | – | < 1 µM | – | –
31 | CC(C)[C@@H](OC(=O)N1CCC1)C1C[C@@H](C)[C@H]2C(O1)[C@H](O)[C@@]1(C)C3CC[C@H]4C(C)(C)C(OC(=O)NC5COC5)CC[C@@]45C[C@@]35CC[C@]21C (stereo partly shown) | < 1 µM | > 10 µM | – | – | – | < 1 µM | – | –
